Assay results: ChEMBL document CHEMBL4765432, “Design and synthesis of novel Flavone-based histone deacetylase inhibitors antagonizing activation of STAT3 in breast cancer” (Eur J Med Chem, 2020)
Activity calls are given as the source filed them. The rule behind the calls is not given here.

Key:
[1] = test system: MDA-MB-231; experiment: Induction of apoptosis in human MDA-MB-231 cells assessed as viable cells at 2.5 uM incubated for 72 hrs by annexinV-FITC and PI staining based flow cytometry analysis (reference value: 90.3 %); assay type: functional; conditions: read-out: Activity
[2] = test system: MCF7; experiment: Potency index, ratio of IC50 of SAHA to IC50 of compound for cytotoxicity against human MCF7 cells assessed as reduction in cell viability incubated for 48 hrs by MTT assay; assay type: functional
[3] = test system: 4T1; experiment: Induction of cell cycle arrest in mouse 4T1 cells assessed as S phase accumulation at 1 uM incubated for 24 hrs by PI staining based flow cytometry analysis (reference value: 19.43 %); assay type: functional
[4] = test system: NCI-H1581; experiment: Cytotoxicity against human NCI-1581 cells assessed as reduction in cell viability incubated for 48 hrs by MTT assay; assay type: functional, cell-based; conditions: NCI-H1581, 48 h
[5] = test system: MDA-MB-231; experiment: Induction of apoptosis in human MDA-MB-231 cells assessed as late apoptotic cells at 1 uM incubated for 72 hrs by annexinV-FITC and PI staining based flow cytometry analysis (reference value: 3.79 %); assay type: functional
[6] = target: Voltage-gated inwardly rectifying potassium channel KCNH2 (Homo sapiens, UniProt Q12809); experiment: Inhibition of human ERG
[7] = test system: 4T1; experiment: Induction of cell cycle arrest in mouse 4T1 cells assessed as increase in G0/G1 phase accumulation incubated for 24 hrs by flow cytometry analysis; assay type: functional, cell-based; conditions: dose 1-2 µM
[8] = Toxicity in C57BL/6 mouse assessed death of organism at 300 mg/kg, ip observed for 24 hrs; assay type: organism-based; conditions: in vivo
[9] = Tmax in Sprague-Dawley rat at 20 mg/kg, po measured upto 12 hrs by LC-MS/MS analysis; assay type: ADME, organism-based; conditions: in vivo
[10] = test system: PC-3; experiment: Cytotoxicity against human PC-3 cells assessed as reduction in cell viability incubated for 48 hrs by MTT assay; assay type: functional, cell-based; conditions: PC-3, 48 h
[11] = test system: 4T1; experiment: Induction of apoptosis in mouse 4T1 cells assessed as necrotic cells at 1 uM incubated for 72 hrs by annexinV-FITC and PI staining based flow cytometry analysis (reference value: 5.00 %); assay type: functional
[12] = target: Histone deacetylase 4 (Homo sapiens, UniProt P56524); experiment: (§1) Inhibition of recombinant human N-terminal GST-tagged HDAC-4 (612 to end residues) expressed in baculovirus infected in Sf9 cells using Boc-Lys (q-Ac)-AMC as substrate incubated for 10 mins followed by substrate addition and measured after 30 mins by fluorescence based assay
[13] = Toxicity in BALB/c mouse xenografted with mouse 4T1 cells assessed as effect on body weight at 50 mg/kg, po administered for 22 days and measured on day 22; assay type: organism-based; conditions: in vivo, 528 h, time 22 day
[14] = test system: MDA-MB-231; experiment: Induction of apoptosis in human MDA-MB-231 cells assessed as effect on Bax expression at 0.5 to 10 uM incubated for 48 hrs by Western blot analysis; assay type: functional, cell-based; conditions: dose 0.5-10 µM
[15] = test system: 4T1; experiment: Induction of cell cycle arrest in mouse 4T1 cells assessed as S phase accumulation at 2 uM incubated for 24 hrs by PI staining based flow cytometry analysis (reference value: 19.43 %); assay type: functional
[16] = test system: MDA-MB-468; experiment: Cytotoxicity against human MDA-MB-468 cells assessed as reduction in cell viability incubated for 48 hrs by MTT assay; assay type: functional, cell-based; conditions: MDA-MB-468, 48 h
[17] = test system: 4T1; experiment: Induction of cell cycle arrest in mouse 4T1 cells assessed as G0/G1 phase accumulation at 2 uM incubated for 24 hrs by PI staining based flow cytometry analysis (reference value: 42.06 %); assay type: functional
[18] = Genotoxicity in Salmonella typhimurium TA100 by Ames test; assay type: toxicity; conditions: salmonella enterica subsp. enterica serovar typhimurium
[19] = test system: MDA-MB-231; experiment: Induction of apoptosis in human MDA-MB-231 cells assessed as necrotic cells at 1 uM incubated for 72 hrs by annexinV-FITC and PI staining based flow cytometry analysis (reference value: 0.330 %); assay type: functional
[20] = target: Histone deacetylase 5 (Homo sapiens, UniProt Q9UQL6); experiment: as §1, with “HDAC-5 (617” for “HDAC-4 (612”, “cells at 10 uM” for “cells”, “assay relative to control” for “assay”; conditions: time 40.0 min
[21] = Half life in Sprague-Dawley rat at 20 mg/kg, po measured upto 12 hrs by LC-MS/MS analysis; assay type: ADME, organism-based; conditions: in vivo
[22] = test system: T47D; experiment: Cytotoxicity against human T47D cells assessed as reduction in cell viability incubated for 48 hrs by MTT assay; assay type: functional, cell-based
[23] = test system: MDA-MB-231; experiment: Potency index, ratio of IC50 of SAHA to IC50 of compound for cytotoxicity against human MDA-MB-231 cells assessed as reduction in cell viability incubated for 48 hrs by MTT assay; assay type: functional
[24] = target: Histone deacetylase 1 (Homo sapiens, UniProt Q13547); experiment: Inhibition of recombinant human C-terminal GST-tagged full length HDAC-1 expressed in baculovirus infected in Sf9 cells using Boc-Lys (q-Ac)-AMC as substrate incubated for 10 mins followed by substrate addition and measured after 30 mins by fluorescence based assay
[25] = test system: 4T1; experiment: Induction of cell cycle arrest in mouse 4T1 cells assessed as G2/M phase accumulation at 1 uM incubated for 24 hrs by PI staining based flow cytometry analysis (reference value: 38.51 %); assay type: functional
[26] = AUC (0 to infinity) in Sprague-Dawley rat at 20 mg/kg, iv measured upto 12 hrs by LC-MS/MS analysis; assay type: ADME, organism-based; parameters: route intravenous, dose 20 mg/kg, time <=12; conditions: in vivo
[27] = test system: HEK-293T; experiment: Cytotoxicity against human HEK293T cells assessed as reduction in cell viability incubated for 48 hrs by MTT assay; assay type: ADME, cell-based
[28] = target: Protein deacetylase HDAC6 (Homo sapiens, UniProt Q9UBN7); experiment: Inhibition of recombinant human N-terminal GST-tagged full length HDAC-6 expressed in baculovirus infected in Sf9 cells using Boc-Lys (q-Ac)-AMC as substrate incubated for 10 mins followed by substrate addition and measured after 30 mins by fluorescence based assay
[29] = test system: 4T1; experiment: Induction of apoptosis in mouse 4T1 cells assessed as necrotic cells at 2.5 uM incubated for 72 hrs by annexinV-FITC and PI staining based flow cytometry analysis (reference value: 5.00 %); assay type: functional
[30] = test system: MDA-MB-231; experiment: Induction of cell cycle arrest in human MDA-MB-231 cells assessed as increase in G0/G1 phase accumulation incubated for 24 hrs by flow cytometry analysis; assay type: functional, cell-based; conditions: dose 1-2 µM
[31] = test system: 4T1; experiment: Induction of apoptosis in mouse 4T1 cells assessed as viable cells at 2.5 uM incubated for 72 hrs by annexinV-FITC and PI staining based flow cytometry analysis (reference value: 91.1 %); assay type: functional; conditions: read-out: Activity
[32] = target: Histone deacetylase 7 (Homo sapiens) (UniProt Q8WUI4); experiment: as §1, with “HDAC-7 (501” for “HDAC-4 (612”, “cells at 10 uM” for “cells”, “assay relative to control” for “assay”; conditions: time 40.0 min
[33] = target: Signal transducer and activator of transcription 3 (Homo sapiens) (UniProt P40763); experiment: Inhibition of STAT3 in human MDA-MB-231 cells assessed as reduction in STAT-3 phosphorylation incubated for 8 hrs by Western blot analysis; assay type: cell-based; conditions: dose 2.5-20 µM
[34] = test system: 4T1; experiment: Induction of apoptosis in mouse 4T1 cells assessed as viable cells at 1 uM incubated for 72 hrs by annexinV-FITC and PI staining based flow cytometry analysis (reference value: 91.1 %); assay type: functional; conditions: read-out: Activity

Histone deacetylase 5, sequence (Q9UQL6 whole entry): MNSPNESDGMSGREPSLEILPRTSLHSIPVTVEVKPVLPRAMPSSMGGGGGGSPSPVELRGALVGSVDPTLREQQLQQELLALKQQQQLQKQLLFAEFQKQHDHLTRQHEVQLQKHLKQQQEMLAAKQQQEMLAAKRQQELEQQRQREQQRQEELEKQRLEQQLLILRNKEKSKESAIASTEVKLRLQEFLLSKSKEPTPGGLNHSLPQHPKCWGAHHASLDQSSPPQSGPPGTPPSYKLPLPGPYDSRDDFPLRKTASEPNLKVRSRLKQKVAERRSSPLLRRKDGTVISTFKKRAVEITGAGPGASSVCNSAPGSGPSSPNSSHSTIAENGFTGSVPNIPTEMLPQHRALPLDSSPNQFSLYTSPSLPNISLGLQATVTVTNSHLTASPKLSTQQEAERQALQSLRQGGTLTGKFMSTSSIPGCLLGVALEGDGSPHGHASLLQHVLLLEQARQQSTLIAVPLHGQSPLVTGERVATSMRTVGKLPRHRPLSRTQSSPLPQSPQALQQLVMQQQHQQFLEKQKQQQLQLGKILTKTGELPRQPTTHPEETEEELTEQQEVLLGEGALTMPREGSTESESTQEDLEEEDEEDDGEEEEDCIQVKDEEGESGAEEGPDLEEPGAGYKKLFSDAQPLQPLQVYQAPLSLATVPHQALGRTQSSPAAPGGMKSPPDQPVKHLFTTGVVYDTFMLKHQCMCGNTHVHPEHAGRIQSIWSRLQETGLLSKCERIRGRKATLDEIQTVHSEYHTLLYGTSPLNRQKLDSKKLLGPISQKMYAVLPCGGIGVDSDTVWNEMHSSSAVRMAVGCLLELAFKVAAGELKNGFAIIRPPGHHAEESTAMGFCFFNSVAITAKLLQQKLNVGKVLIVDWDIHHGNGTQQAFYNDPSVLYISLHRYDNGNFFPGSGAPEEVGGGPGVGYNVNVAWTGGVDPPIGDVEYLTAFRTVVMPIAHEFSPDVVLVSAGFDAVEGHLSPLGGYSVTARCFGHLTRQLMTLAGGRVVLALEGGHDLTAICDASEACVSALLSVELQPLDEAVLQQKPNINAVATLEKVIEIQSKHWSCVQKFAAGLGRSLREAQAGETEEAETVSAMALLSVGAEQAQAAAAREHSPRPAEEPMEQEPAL
Protein deacetylase HDAC6, sequence (Q9UBN7 whole entry): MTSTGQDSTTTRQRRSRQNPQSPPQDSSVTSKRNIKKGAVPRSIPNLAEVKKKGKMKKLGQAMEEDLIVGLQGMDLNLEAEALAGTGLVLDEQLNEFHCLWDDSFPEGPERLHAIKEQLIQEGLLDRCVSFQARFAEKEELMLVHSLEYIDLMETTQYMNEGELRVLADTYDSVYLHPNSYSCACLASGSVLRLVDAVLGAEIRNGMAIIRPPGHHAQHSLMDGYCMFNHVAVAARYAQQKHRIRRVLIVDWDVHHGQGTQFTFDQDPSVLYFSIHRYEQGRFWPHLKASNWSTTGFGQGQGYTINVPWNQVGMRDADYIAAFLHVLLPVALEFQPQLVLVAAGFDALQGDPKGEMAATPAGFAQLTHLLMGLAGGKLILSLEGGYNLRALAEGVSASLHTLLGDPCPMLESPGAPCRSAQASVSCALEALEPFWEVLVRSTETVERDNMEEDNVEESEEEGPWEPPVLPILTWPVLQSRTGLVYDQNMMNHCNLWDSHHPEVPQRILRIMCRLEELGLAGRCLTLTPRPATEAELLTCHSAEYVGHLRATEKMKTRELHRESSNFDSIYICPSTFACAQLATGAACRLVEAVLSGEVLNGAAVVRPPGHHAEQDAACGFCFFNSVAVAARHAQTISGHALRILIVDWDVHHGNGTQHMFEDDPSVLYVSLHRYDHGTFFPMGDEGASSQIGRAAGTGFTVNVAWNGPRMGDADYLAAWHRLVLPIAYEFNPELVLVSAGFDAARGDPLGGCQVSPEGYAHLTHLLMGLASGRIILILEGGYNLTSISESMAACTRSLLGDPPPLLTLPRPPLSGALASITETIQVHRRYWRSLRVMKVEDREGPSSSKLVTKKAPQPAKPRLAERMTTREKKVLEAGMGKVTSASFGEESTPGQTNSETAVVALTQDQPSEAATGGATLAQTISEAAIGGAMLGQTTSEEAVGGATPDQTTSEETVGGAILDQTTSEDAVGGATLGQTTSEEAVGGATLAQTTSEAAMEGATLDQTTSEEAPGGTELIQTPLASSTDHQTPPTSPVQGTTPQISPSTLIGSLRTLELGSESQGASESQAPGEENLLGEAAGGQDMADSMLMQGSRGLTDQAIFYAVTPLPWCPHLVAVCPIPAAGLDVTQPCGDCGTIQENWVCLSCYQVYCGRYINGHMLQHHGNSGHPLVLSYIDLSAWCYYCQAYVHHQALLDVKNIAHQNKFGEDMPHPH
Histone deacetylase 1, sequence (Q13547 whole entry): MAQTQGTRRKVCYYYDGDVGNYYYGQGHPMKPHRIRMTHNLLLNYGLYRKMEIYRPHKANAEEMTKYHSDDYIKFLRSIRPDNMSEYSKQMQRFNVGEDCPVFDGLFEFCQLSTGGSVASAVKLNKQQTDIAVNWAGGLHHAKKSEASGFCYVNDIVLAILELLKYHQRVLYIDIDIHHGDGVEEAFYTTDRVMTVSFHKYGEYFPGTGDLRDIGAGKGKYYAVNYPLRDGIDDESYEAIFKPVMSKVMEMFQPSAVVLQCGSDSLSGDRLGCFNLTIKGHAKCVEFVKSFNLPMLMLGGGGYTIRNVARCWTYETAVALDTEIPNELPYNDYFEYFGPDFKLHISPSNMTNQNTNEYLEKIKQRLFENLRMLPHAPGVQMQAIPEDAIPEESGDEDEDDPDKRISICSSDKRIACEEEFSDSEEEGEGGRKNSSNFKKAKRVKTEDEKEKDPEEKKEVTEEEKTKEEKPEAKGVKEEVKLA
Histone deacetylase 7 (Homo sapiens), sequence (Q8WUI4 whole entry): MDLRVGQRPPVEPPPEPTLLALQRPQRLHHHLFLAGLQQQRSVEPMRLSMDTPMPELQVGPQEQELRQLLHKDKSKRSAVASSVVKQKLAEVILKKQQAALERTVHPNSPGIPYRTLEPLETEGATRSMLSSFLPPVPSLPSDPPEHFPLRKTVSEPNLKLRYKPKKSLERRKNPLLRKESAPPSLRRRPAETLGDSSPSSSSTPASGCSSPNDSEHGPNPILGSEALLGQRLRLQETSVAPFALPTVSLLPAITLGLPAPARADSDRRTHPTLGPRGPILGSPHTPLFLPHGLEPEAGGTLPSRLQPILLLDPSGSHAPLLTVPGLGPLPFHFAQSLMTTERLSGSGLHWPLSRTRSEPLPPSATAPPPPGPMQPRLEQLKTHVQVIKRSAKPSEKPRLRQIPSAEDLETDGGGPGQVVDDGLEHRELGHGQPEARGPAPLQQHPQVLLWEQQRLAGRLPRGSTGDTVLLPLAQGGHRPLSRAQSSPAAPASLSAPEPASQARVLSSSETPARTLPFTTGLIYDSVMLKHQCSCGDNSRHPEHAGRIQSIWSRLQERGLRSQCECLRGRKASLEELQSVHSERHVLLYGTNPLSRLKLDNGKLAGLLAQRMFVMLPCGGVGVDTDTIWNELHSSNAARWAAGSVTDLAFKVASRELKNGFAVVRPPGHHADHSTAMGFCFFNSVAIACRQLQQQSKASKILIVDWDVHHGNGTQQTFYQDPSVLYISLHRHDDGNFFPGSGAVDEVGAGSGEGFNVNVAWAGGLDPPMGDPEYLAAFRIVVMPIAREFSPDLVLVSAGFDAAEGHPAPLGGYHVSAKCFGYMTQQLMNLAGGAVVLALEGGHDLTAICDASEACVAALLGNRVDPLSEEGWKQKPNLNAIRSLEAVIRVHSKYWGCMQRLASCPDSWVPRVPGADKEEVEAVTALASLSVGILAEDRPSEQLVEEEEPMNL
Signal transducer and activator of transcription 3 (Homo sapiens), sequence (P40763 whole entry): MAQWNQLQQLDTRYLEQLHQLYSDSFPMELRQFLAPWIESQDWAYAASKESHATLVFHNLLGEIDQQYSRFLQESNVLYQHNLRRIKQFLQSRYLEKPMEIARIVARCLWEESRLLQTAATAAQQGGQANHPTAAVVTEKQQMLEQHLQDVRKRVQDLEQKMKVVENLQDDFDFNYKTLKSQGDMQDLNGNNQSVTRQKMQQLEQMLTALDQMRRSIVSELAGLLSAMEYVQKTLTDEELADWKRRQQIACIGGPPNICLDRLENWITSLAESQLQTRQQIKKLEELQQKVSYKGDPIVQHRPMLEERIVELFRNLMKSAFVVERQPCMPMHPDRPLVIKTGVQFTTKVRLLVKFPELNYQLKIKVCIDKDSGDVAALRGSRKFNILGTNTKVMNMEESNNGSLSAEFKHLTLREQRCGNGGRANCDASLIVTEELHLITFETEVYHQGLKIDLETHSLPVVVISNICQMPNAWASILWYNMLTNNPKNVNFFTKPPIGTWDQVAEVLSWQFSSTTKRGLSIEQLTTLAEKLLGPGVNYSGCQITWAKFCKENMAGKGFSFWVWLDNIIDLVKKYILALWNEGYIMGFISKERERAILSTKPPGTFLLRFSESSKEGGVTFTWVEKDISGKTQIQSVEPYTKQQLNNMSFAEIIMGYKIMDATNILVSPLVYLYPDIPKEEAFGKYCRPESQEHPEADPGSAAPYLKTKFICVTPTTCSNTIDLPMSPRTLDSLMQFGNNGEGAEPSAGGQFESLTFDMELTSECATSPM

## CN(C)CCOc1ccc(-c2cc(=O)c3c(O)cc(OCCCCCC(=O)NO)cc3o2)cc1.Cl
[1]
  viability at 2.5 µM: 25.5%
[2]
  Ratio IC50: 2
[3]
  Activity: 30.99%
[4]
  IC50: 2.32 µM
[5]
  Activity: 12%
[6]
  IC50: 1.2 µM
[7]
  Activity: Dose-dependent effect
[8]
  Activity: Non-Toxic
[9]
  Tmax: 20 min
[10]
  IC50: 1.92 µM
[11]
  Activity: 3.6%
[12]
  IC50: 0.307 µM
[13]
  Activity: Non-Toxic
[14]
  Activity: inactive
[15]
  Activity: 25.58%
[16]
  IC50: 3.4 µM
[17]
  Activity: 62.91%
[18]
  Activity: Toxic
[19]
  Activity: 0.13%
[20]
  inhibition: 38%
[21]
  half-life: 14.9 min
[22]
  IC50: 1.53 µM
[23]
  Ratio IC50: 2
[24]
  IC50: 0.036 µM
[25]
  Activity: 19.39%
[26]
  AUC(0-inf): 2840 ng·h/mL
[27]
  IC50: > 10 µM
[28]
  IC50: 0.0255 µM
[29]
  Activity: 1.8%
[30]
  Activity: Dose-dependent effect
[31]
  viability at 2.5 µM: 32.9%
[32]
  inhibition: 43%
[33]
  inhibition: Dose-dependent effect
[34]
  viability at 1 µM: 72.3%
